From PubChem BioAssay (NCI)
“And” between values parts separate entries of the source, which are not always exact repeats. Identical values can stand only once.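 1) Cells in 96-well plates. 2) Compound, 48 h, 5 concentrations. 3) Linear interpolation between surrounding doses. 4) Unreached endpoint = highest concentration. At the GI50, growth is halved. TGI: total growth inhibition.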 Where a SMILES comes first, the peptide text is derived from it. The star is where a group is joined. Cbz = O=C(OCc1ccccc1)*; Boc = CC(C)(C)OC(=O)*; tBu = CC(C)(C)*

Legend:
Experiment in all cases: growth of human tumour cells (NCI), 48 h
786-0 renal = tested on: 786-0 renal
ACHN renal = tested on: ACHN renal
COLO 205 colon = tested on: COLO 205 colon
EKVX NSCLC = tested on: EKVX NSCLC
M14 melanoma = tested on: M14 melanoma
NCI-H460 lung = tested on: NCI-H460 lung
NCI-H522 lung = tested on: NCI-H522 lung
OVCAR-8 ovarian = tested on: OVCAR-8 ovarian
SK-OV-3 ovarian = tested on: SK-OV-3 ovarian
SN12C renal = tested on: SN12C renal
UACC-62 melanoma = tested on: UACC-62 melanoma
UO-31 renal = tested on: UO-31 renal
BT-549 breast = tested on: BT-549 breast
PC-3 prostate = tested on: PC-3 prostate
T-47D breast = tested on: T-47D breast
MDA-N = tested on: MDA-N

CC(C)N1CN(C(C(=O)N[C@@H]2C(=O)N3C2SC(C)(C)C3C(=O)O)c2ccccc2)CSC1=S (stereo partly specified)
TGI (786-0 renal): > 100 µM
TGI (ACHN renal): > 100 µM
TGI (COLO 205 colon): > 100 µM
TGI (EKVX NSCLC): > 100 µM
TGI (M14 melanoma): > 100 µM
TGI (NCI-H460 lung): > 100 µM
TGI (NCI-H522 lung): 72.1 µM
TGI (OVCAR-8 ovarian): > 100 µM
TGI (SK-OV-3 ovarian): > 100 µM
TGI (SN12C renal): > 100 µM
TGI (UACC-62 melanoma): > 100 µM
TGI (UO-31 renal): > 100 µM

COc1ccc(C2=Nn3c(nnc(Cc4ccc(Cl)cc4)c3=O)SC2)cc1
TGI (786-0 renal): > 100 µM
TGI (ACHN renal): > 100 µM
TGI (BT-549 breast): > 100 µM
TGI (COLO 205 colon): > 100 µM
TGI (EKVX NSCLC): > 100 µM
TGI (M14 melanoma): 91 µM
TGI (NCI-H460 lung): > 100 µM
TGI (NCI-H522 lung): > 100 µM
TGI (OVCAR-8 ovarian): > 100 µM
TGI (PC-3 prostate): > 100 µM
TGI (SK-OV-3 ovarian): > 100 µM
TGI (SN12C renal): > 100 µM
TGI (T-47D breast): > 100 µM
TGI (UACC-62 melanoma): > 100 µM
TGI (UO-31 renal): > 100 µM

Cc1cc(C)n(C2OC(CO)C(O)C(O)C2O)c(=S)c1C#N (stereo unspecified)
TGI (786-0 renal): > 100 µM
TGI (ACHN renal): > 100 µM
TGI (BT-549 breast): > 100 µM
TGI (COLO 205 colon): > 100 µM
TGI (M14 melanoma): > 100 µM
TGI (MDA-N): > 100 µM
TGI (NCI-H460 lung): > 100 µM
TGI (NCI-H522 lung): > 100 µM
TGI (OVCAR-8 ovarian): > 100 µM
TGI (PC-3 prostate): > 100 µM
TGI (SN12C renal): > 100 µM
TGI (T-47D breast): > 100 µM
TGI (UACC-62 melanoma): > 100 µM
TGI (UO-31 renal): > 100 µM

CCOP(=O)(O)C1C(CO)OC(n2ccc(=O)[nH]c2=O)C1O (stereo unspecified)
TGI (786-0 renal): > 100 µM
TGI (ACHN renal): > 100 µM
TGI (BT-549 breast): > 100 µM
TGI (EKVX NSCLC): > 100 µM
TGI (M14 melanoma): > 100 µM
TGI (MDA-N): > 100 µM
TGI (NCI-H460 lung): > 100 µM
TGI (NCI-H522 lung): > 100 µM
TGI (OVCAR-8 ovarian): > 100 µM
TGI (PC-3 prostate): > 100 µM
TGI (SN12C renal): > 100 µM
TGI (T-47D breast): > 100 µM
TGI (UACC-62 melanoma): > 100 µM
TGI (UO-31 renal): > 100 µM

C=C1CCC23CC(CC[C@@H]2[C@@]12C[C@@H](c1ccoc1)OC2=O)OC3=O (stereo partly specified)
TGI (786-0 renal): > 100 µM
TGI (ACHN renal): > 100 µM
TGI (COLO 205 colon): > 100 µM
TGI (EKVX NSCLC): > 100 µM
TGI (M14 melanoma): > 100 µM
TGI (NCI-H460 lung): > 100 µM
TGI (NCI-H522 lung): > 100 µM
TGI (OVCAR-8 ovarian): > 100 µM
TGI (SK-OV-3 ovarian): > 100 µM
TGI (SN12C renal): > 100 µM
TGI (UACC-62 melanoma): > 100 µM
TGI (UO-31 renal): > 100 µM

N#C/C(N)=C(\C#N)N=CN
TGI (786-0 renal): > 100 µM
TGI (ACHN renal): > 100 µM
TGI (COLO 205 colon): > 100 µM
TGI (EKVX NSCLC): > 100 µM
TGI (M14 melanoma): > 100 µM
TGI (MDA-N): > 100 µM
TGI (NCI-H460 lung): > 100 µM
TGI (OVCAR-8 ovarian): > 100 µM
TGI (PC-3 prostate): > 100 µM
TGI (SK-OV-3 ovarian): > 100 µM
TGI (SN12C renal): > 100 µM
TGI (T-47D breast): > 100 µM
TGI (UACC-62 melanoma): > 100 µM
TGI (UO-31 renal): > 100 µM

CCc1c(C)c(C#N)c(=S)n(C2OC(COC(C)=O)C(OC(C)=O)C(OC(C)=O)C2OC(C)=O)c1C (stereo unspecified)
TGI (786-0 renal): > 100 µM and 41.5 µM
GI50 (ACHN renal): > 100 µM and 18.9 µM
TGI (ACHN renal): > 100 µM
TGI (COLO 205 colon): > 100 µM
TGI (EKVX NSCLC): > 100 µM
TGI (M14 melanoma): > 100 µM
TGI (MDA-N): > 100 µM
TGI (NCI-H460 lung): > 100 µM
TGI (NCI-H522 lung): > 100 µM
TGI (OVCAR-8 ovarian): > 100 µM
TGI (PC-3 prostate): > 100 µM and 27.9 µM
GI50 (SK-OV-3 ovarian): 63.4 µM and 20.8 µM
TGI (SK-OV-3 ovarian): > 100 µM and 84.6 µM
TGI (SN12C renal): > 100 µM
TGI (T-47D breast): > 100 µM
GI50 (UACC-62 melanoma): > 100 µM and 47.6 µM
TGI (UACC-62 melanoma): > 100 µM
GI50 (UO-31 renal): 11 µM and 3.57 µM
TGI (UO-31 renal): 92.2 µM and 14.5 µM

O=C1O/C(=C(/Cl)c2cccc3ccccc23)c2ccccc21
TGI (786-0 renal): > 100 µM
TGI (BT-549 breast): > 100 µM
TGI (COLO 205 colon): > 100 µM
TGI (EKVX NSCLC): > 100 µM
TGI (M14 melanoma): > 100 µM
TGI (MDA-N): > 100 µM
TGI (NCI-H460 lung): > 100 µM
TGI (NCI-H522 lung): > 100 µM
TGI (OVCAR-8 ovarian): > 100 µM
TGI (PC-3 prostate): > 100 µM
TGI (SK-OV-3 ovarian): > 100 µM
TGI (SN12C renal): > 100 µM
TGI (UACC-62 melanoma): > 100 µM
TGI (UO-31 renal): > 100 µM

CC(OC(C)(C)C)C(NC(=O)C(CCCCNC(=O)OC(C)(C)C)NC(=O)C(Cc1c[nH]c2ccccc12)NC(=O)C(Cc1ccccc1)NC(=O)OCc1ccccc1)C(=O)NC(Cc1ccccc1)C(=O)O (stereo unspecified) (Cbz-FWK(Boc)T(tBu)F-OH; configuration not given here)
TGI (786-0 renal): > 100 µM
TGI (ACHN renal): > 100 µM
TGI (COLO 205 colon): > 100 µM
TGI (EKVX NSCLC): > 100 µM
TGI (M14 melanoma): > 100 µM
TGI (MDA-N): > 100 µM
TGI (NCI-H460 lung): > 100 µM
TGI (NCI-H522 lung): 85 µM
TGI (OVCAR-8 ovarian): > 100 µM
TGI (PC-3 prostate): > 100 µM
TGI (SK-OV-3 ovarian): > 100 µM
TGI (SN12C renal): 62.6 µM
TGI (T-47D breast): 73.6 µM
TGI (UACC-62 melanoma): 67.9 µM
TGI (UO-31 renal): > 100 µM

COc1cccc(N2C(=O)[C@H]3CC(C)c4c([nH]c5ccccc45)[C@H]3C2=O)c1 (stereo partly specified)
TGI (786-0 renal): 50.5 µM
TGI (COLO 205 colon): > 100 µM
TGI (EKVX NSCLC): > 100 µM
TGI (M14 melanoma): > 100 µM
TGI (NCI-H460 lung): > 100 µM
TGI (NCI-H522 lung): > 100 µM
TGI (OVCAR-8 ovarian): > 100 µM
TGI (SK-OV-3 ovarian): 72.2 µM
TGI (SN12C renal): > 100 µM
TGI (UACC-62 melanoma): > 100 µM
TGI (UO-31 renal): > 100 µM

CNC(=O)N1CN(c2ccccc2)C2(CCN(CCCC3(c4ccc(F)cc4)OCCO3)CC2)C1=O
TGI (786-0 renal): > 100 µM
TGI (ACHN renal): > 100 µM
TGI (COLO 205 colon): > 100 µM
TGI (EKVX NSCLC): > 100 µM
TGI (M14 melanoma): > 100 µM
TGI (MDA-N): > 100 µM
TGI (NCI-H460 lung): > 100 µM
TGI (NCI-H522 lung): > 100 µM
TGI (PC-3 prostate): > 100 µM
TGI (SK-OV-3 ovarian): > 100 µM
TGI (SN12C renal): > 100 µM
TGI (T-47D breast): > 100 µM
TGI (UACC-62 melanoma): > 100 µM
TGI (UO-31 renal): > 100 µM

CSC1=N/C(=C\c2ccccc2)C(=O)N1CN1CCCCC1
TGI (786-0 renal): > 100 µM
TGI (ACHN renal): > 100 µM
TGI (COLO 205 colon): > 100 µM
TGI (EKVX NSCLC): > 100 µM
TGI (M14 melanoma): > 100 µM
TGI (MDA-N): > 100 µM
TGI (NCI-H522 lung): > 100 µM
TGI (OVCAR-8 ovarian): > 100 µM
TGI (PC-3 prostate): > 100 µM
TGI (SK-OV-3 ovarian): > 100 µM
TGI (SN12C renal): > 100 µM
TGI (UACC-62 melanoma): > 100 µM
TGI (UO-31 renal): > 100 µM

Cc1ccc(S(=O)(=O)OC(c2ccc(Cl)cc2Cl)C2OC(=O)c3ccccc32)cc1 (stereo unspecified)
TGI (786-0 renal): > 100 µM
TGI (ACHN renal): > 100 µM
TGI (COLO 205 colon): > 100 µM
TGI (EKVX NSCLC): > 100 µM
TGI (M14 melanoma): > 100 µM
TGI (NCI-H460 lung): > 100 µM
TGI (NCI-H522 lung): > 100 µM
TGI (OVCAR-8 ovarian): > 100 µM
TGI (SN12C renal): > 100 µM
TGI (UACC-62 melanoma): > 100 µM
TGI (UO-31 renal): 95.6 µM

COc1cccc(/C=C2\C(=O)N(C(=O)c3ccc(NC(C)=O)cc3)N=C2C)c1
TGI (786-0 renal): > 100 µM
TGI (ACHN renal): > 100 µM
TGI (COLO 205 colon): > 100 µM
TGI (EKVX NSCLC): > 100 µM
TGI (M14 melanoma): > 100 µM
TGI (NCI-H460 lung): > 100 µM
TGI (NCI-H522 lung): > 100 µM
TGI (OVCAR-8 ovarian): > 100 µM
TGI (SN12C renal): > 100 µM
TGI (UO-31 renal): > 100 µM

COc1ccc(N2C(=O)c3cc(C)cnc3S2(=O)=O)cc1
TGI (786-0 renal): > 100 µM
TGI (ACHN renal): > 100 µM
TGI (BT-549 breast): > 100 µM
TGI (COLO 205 colon): > 100 µM
TGI (EKVX NSCLC): > 100 µM
TGI (MDA-N): > 100 µM
TGI (NCI-H460 lung): > 100 µM
TGI (NCI-H522 lung): > 100 µM
TGI (OVCAR-8 ovarian): > 100 µM
TGI (PC-3 prostate): > 100 µM
TGI (SK-OV-3 ovarian): > 100 µM
TGI (SN12C renal): > 100 µM
TGI (UACC-62 melanoma): > 100 µM
TGI (UO-31 renal): > 100 µM

CCOC(=O)C(Cc1cn(S(=O)(=O)c2ccccc2)c2ccccc12)(NC(C)=O)C(=O)OCC
TGI (786-0 renal): > 100 µM
TGI (ACHN renal): > 100 µM
TGI (COLO 205 colon): 60.8 µM
TGI (M14 melanoma): > 100 µM
TGI (NCI-H460 lung): > 100 µM
TGI (NCI-H522 lung): 52.5 µM
TGI (OVCAR-8 ovarian): > 100 µM
TGI (UACC-62 melanoma): > 100 µM
TGI (UO-31 renal): 55.8 µM
